From patent US20260083751A1, “ALLOSTERIC MODULATORS OF ANDROGEN RECEPTOR COACTIVATOR RECRUITMENT FOR CRPC THERAPY” (University of Pittsburgh – Of the Commonwealth System of …, priority 2022, published 2026) come the findings set out here.

Each structure is given as a SMILES string. pIC50: −log10 of the molar value. Entries after “also recorded” stand apart in the source; their conditions may differ. Where two headings read alike, the source gives them in different places.

Type in all cases: cell-based
The test system of assay [1] is PSA secretion in C4-2 conditioned media. The experiment in a line: Dot blot of PSA secretion by C4-2 cells. Particulars: C4-2 cells, 20 μM 3 h, ±10 nM DHT 24 h. The protocol: To determine PSA secretion levels, C4-2 cells were seeded at 1.4×10^5 cells/well in 12-well plates and treated as described above for PSA cell expression experiments. […] 500 μL of conditioned media supernatant was added to the wells of 96-well to Bio-blot apparatus (BioRad, Hercules, CA) containing a nitrocellulose membrane and was allowed to pass through and attach to the membrane under gravity for 3-4 h at room temperature. The membrane was washed 1× with 500 μL TBS under vacuum, blocked with 1% BSA in TBST for 1 h, and then incubated overnight at 4° C. with the primary rabbit anti-hPSA antibody (Cell Signaling, Danvers, MA) diluted 1:1000 in TBST plus 1% BSA. Dot blots were washed 3× in 10 mL of TBST for 10 min, then incubated for 1 h with secondary goat anti-rabbit-IgG HRP conjugated antibody (Invitrogen, Carlsbad, CA) diluted 1:10,000 in TBST plus 1% Bovine Serum Albumin (BSA), washed 3× with […] of TBST for 10 min, and then developed with Pierce ECL western blotting substrate. Images of ECL dot blots were acquired on an iBright™ 1500 imaging system and quantified by iBright™ image analysis software (ThermoFisher Scientific, Waltham, MA).

The target of another assay is T1, AR-LBD and SRC1 (Homo sapiens, UniProt P10275).
T1 construct: AR-LBD amino acids 658-919 expressed as a fusion protein with Gal4-DBD; expressed in transfected cells; host or cells: HEK 293, transient co-transfection
T1 sequence (P10275 658-919): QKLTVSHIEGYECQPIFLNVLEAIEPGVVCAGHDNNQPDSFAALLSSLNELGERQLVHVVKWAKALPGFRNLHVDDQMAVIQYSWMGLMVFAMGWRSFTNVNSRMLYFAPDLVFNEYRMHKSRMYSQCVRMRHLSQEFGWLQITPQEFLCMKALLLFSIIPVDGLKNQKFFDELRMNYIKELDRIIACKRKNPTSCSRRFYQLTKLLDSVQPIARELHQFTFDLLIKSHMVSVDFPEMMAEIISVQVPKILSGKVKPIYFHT
The experiment in a line: AR-SRC1 mammalian 2-hybrid assay. The settings on record: HEK 293 cells; read-out: Inhibition DHT-induced AR-SRC1 mammalian 2 hybrid assay IC50. The source says:
(§1) TIF2 and SRC1 Mammalian 2-Hybrid Assays: The 5×GAL4-TATA-luciferase reporter plasmid was a gift from Dr. Richard Maurer from the Oregon Health and Science University (Gonzalez et al., Cell 1989, 59:675-80), and constructs pGAL4-hAR-658-919 (AR-LBD amino acids 658-919 expressed as a fusion protein with Gal4-DBD) (Askew et al., J Biol Chem 2007, 282:25801-16), pVP16-SRC1 (full-length SRC1 expressed as a fusion with VP16 activation domain) (He et al., J Biol Chem 1999, 274:37219-25) and pVP16-Empty vectors were kindly provided to us by Dr. Elizabeth Wilson, from UNC Chapel Hill. pVP16-TIF2 was generated as described previously (Fancher et al., Assay Drug Dev Technol. 2019, 17:364-386). HEK 293 cells were transiently co-transfected with 5 ng of pGal4-AR-LBD, 10 ng of either pVP16-TIF2 or pVP16-SRC1, and 20 ng of the 5×Gal4-TATA-Luc reporter as described previously (Ibid.). HEK 293 cells were bulk co-transfected with the three plasmids that had been individually incubated with FuGENE® 6 transfection agent (Fugent LLC, Middleton, WI) at a 3:1 ratio for 25 min at room temperature (RT) in serum free media (SFM) and then combined with HEK 293 cells that were suspended in DMEM (Cellgro10013CV) with 2 mM L-glutamine (Invitrogen) that was supplemented with 10% fetal bovine serum, and 5,000 cells in a volume of 40 μL were seeded into the wells of white opaque 384-well assay plates (Greiner Bio-one, #781080) and cultured overnight at 37° C., 5% CO2, and 95% humidity. […] 25 μL of BrightGlo® reagent (Promega, Madison, WI) was added to the plate and the relative luminescence units (RLUs) were captured on a SpectraMax® M5e microtiter plate reader (Molecular Devices, LLC, San Jose, CA).

A further assay addresses T2, AR-LBD and TIF2 (Homo sapiens, UniProt P10275).
T2 construct: AR-LBD amino acids 658-919 expressed as a fusion protein with Gal4-DBD; expressed in transfected cells; host or cells: HEK 293, transient co-transfection
T2 sequence (P10275 658-919): T1 sequence (P10275 658-919)
Nature of the assay: AR-TIF2 mammalian 2-hybrid assay. Particulars: HEK 293 cells; read-out: Inhibition DHT-induced AR-TIF2 mammalian 2 hybrid assay IC50.
Source text: as §1

Another assay has as its system DU-145 cells. The experiment in a line: Prostate cancer cell line growth inhibition assay, DU-145. The settings on record: read-out: AR negative DU-145 GI50. The protocol:
Prostate Cancer Cell Line Growth Inhibition Assays: The PC-3, DU-145, LNCaP, C4-2, and 22Rv1 PC cell line growth inhibition assays have been described previously (Fancher et al., Assay Drug Dev Technol. 2016, 14:453-477; Fancher et al., Assay Drug Dev Technol. 2019, 17:364-386). On day 1, each PC cell line was harvested, counted, and seeded into two 384-well assay plates, a time zero (T0) and a time 72 h (T72) plate. […] On day 2, 25 μL of the CellTiter-Glo® (CTG) (Promega Corporation, Madison, WI) detection reagent was dispensed into the wells of the TO assay plate using a Matrix electronic multichannel pipette, and the RLUs were captured on the SpectraMax® M5e (Molecular Devices LLC, Sunnyvale, CA) microtiter plate reader. […] On day 5, 25 μL of the CTG detection reagent was dispensed into the wells of the T72 assay plate using a Matrix electronic multichannel pipette, and the RLU's were captured on the SpectraMax® M5e microtiter plate reader platform.
For the 96-well AR-LBD H^3-DHT radioligand binding assay, eight minimum and maximum plate control wells were utilized to normalize the data. […] To normalize the 72 h compound exposure PC growth inhibition data, the signals from the compound treated wells were processed and expressed as % of the T72 DMSO plate controls. […]

A further assay deals with C4-2 cells. Nature of the assay: Prostate cancer cell line growth inhibition assay, C4-2. The settings on record: C4-2, 72 h; read-out: AR positive C4-2 GI50. The procedure: Prostate Cancer Cell Line Growth Inhibition Assays: The PC-3, DU-145, LNCaP, C4-2, and 22Rv1 PC cell line growth inhibition assays have been described previously (Fancher et al., Assay Drug Dev Technol. 2016, 14:453-477; Fancher et al., Assay Drug Dev Technol. 2019, 17:364-386). On day 1, each PC cell line was harvested, counted, and seeded into two 384-well assay plates, a time zero (T0) and a time 72 h (T72) plate. PC cell lines were all seeded at 1,000 cells per well in 45 μL of tissue culture media in uncoated white clear bottom 384-well assay plates (VWR, #82050-076) using a Matrix electronic multichannel pipette (Thermo Fisher Scientific, Waltham, MA) and cultured overnight at 37° C., 5% CO2, and 95% humidity. On day 2, 25 μL of the CellTiter-Glo® (CTG) (Promega Corporation, Madison, WI) detection reagent was dispensed into the wells of the TO assay plate using a Matrix electronic multichannel pipette, and the RLUs were captured on the SpectraMax® M5e (Molecular Devices LLC, Sunnyvale, CA) microtiter plate reader. Also on day 2, 5 μL of compounds were transferred into the test wells of the T72 384-well assay plates which were returned to the incubator for 72 h. Control wells received DMSO alone. On day 5, 25 μL of the CTG detection reagent was dispensed into the wells of the T72 assay plate using a Matrix electronic multichannel pipette, and the RLU's were captured on the SpectraMax® M5e microtiter plate reader platform.
For the 96-well AR-LBD H^3-DHT radioligand binding assay, eight minimum and maximum plate control wells were utilized to normalize the data. […] To normalize the 72 h compound exposure PC growth inhibition data, the signals from the compound treated wells were processed and expressed as % of the T72 DMSO plate controls. IC50 and GI50 values for each of the bioassays were calculated using GraphPad Prism 9 software to plot and fit data to curves using the Sigmoidal dose response variable slope equation Y=Bottom+[Top-Bottom]/[1+10^(Log EC50−X)*HillSlope].

Broadly, the pIC50 is the IC50 on a negative log10 scale, so that one unit is a factor of ten. As a reminder, the GI50 is the concentration that inhibits growth by half. Take `Cc1ccccc1-c1cc(O)c2c(c1)CN(c1nc(C(N)=O)cs1)CCO2` [Compound S1-1]: the “Endogenous and DHT-enhanced PSA secretion” value in assay [1] was “substantially reduced; also recorded: inhibition”. For the same compound, the pIC50 is 6.42 on AR-LBD and SRC1; 6.04 on AR-LBD and TIF2. For the same compound, the GI50 with DU-145 cells (72 h, listed as 1) is 60500 nM; in the assay with C4-2 cells, 30700 nM.
`Cc1nsc(NC(=O)N2CCC(Sc3ccccc3C)CC2)n1` [Compound S2-6]: the “Endogenous and DHT-enhanced PSA secretion” value in assay [1] is on record as “substantially reduced; also recorded: inhibition”. For the same compound, the pIC50 on AR-LBD and SRC1 is 6.54; at AR-LBD and TIF2, 7.30. The GI50 with C4-2 cells was determined as 8660 nM.
In the case of `Cc1c(-c2ccccc2F)[nH]c2ccc(CNC(=O)CCc3cn[nH]c3)cc12` [Compound S3-11], the “Endogenous and DHT-enhanced PSA secretion” value in assay [1] is on record as “substantially reduced; also recorded: inhibition”. The pIC50 at AR-LBD and SRC1 is 6.22; on AR-LBD and TIF2 it was 6.05. In addition, the GI50 is 15900 nM in the assay on DU-145 cells (Homo sapiens, DU-145, 72 h) and 6920 nM in the assay on C4-2 cells.
